From ChEMBL document CHEMBL1201862, “PubChem BioAssay data set” (2004)
The source made the active and inactive calls. For most assays here, no stated cut-off is given here; in the data, actives have a measured IC50 and inactives only a lower limit.

Assays:
[1] = target: Voltage-gated inwardly rectifying potassium channel KCNH2 (Homo sapiens, UniProt Q12809); details: Potency;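 further: confirmatory quantitative high-throughput screen measuring inhibition of hERG channel activity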
[2] = target: T1, Microphthalmia-associated transcription factor (Homo sapiens, UniProt O75030); experiment: TRPM1 promoter luciferase signal decrease, dose response, MITF inhibitor project, cell-based, SK-MEL-5, cherry-picked, set 3 (AID 493073); format: functional
T1 sequence (O75030 whole entry): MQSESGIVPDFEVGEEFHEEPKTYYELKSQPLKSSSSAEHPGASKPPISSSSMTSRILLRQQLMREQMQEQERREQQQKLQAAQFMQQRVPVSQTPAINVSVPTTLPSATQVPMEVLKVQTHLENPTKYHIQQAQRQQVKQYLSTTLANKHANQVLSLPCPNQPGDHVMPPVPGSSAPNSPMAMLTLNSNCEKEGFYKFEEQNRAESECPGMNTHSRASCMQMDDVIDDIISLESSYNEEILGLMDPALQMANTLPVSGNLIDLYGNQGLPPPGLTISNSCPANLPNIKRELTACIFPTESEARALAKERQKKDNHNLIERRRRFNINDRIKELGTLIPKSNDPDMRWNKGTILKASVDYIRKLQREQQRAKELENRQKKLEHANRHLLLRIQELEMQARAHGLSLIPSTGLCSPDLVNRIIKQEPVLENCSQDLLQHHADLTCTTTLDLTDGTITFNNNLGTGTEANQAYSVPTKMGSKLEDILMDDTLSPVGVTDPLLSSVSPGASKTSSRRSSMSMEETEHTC

[3] = tested on: A-375; experiment: A375 melanoma cell viability reduction, dose response, counter-screen for MITF modulator project, cherry-pick samples, set 2 (AID 540335); format: functional, cell-based; details: Homo sapiens
[4] = target: T2, Sentrin-specific protease 6 (Homo sapiens, UniProt Q9GZR1); format: functional
T2 sequence (Q9GZR1 whole entry): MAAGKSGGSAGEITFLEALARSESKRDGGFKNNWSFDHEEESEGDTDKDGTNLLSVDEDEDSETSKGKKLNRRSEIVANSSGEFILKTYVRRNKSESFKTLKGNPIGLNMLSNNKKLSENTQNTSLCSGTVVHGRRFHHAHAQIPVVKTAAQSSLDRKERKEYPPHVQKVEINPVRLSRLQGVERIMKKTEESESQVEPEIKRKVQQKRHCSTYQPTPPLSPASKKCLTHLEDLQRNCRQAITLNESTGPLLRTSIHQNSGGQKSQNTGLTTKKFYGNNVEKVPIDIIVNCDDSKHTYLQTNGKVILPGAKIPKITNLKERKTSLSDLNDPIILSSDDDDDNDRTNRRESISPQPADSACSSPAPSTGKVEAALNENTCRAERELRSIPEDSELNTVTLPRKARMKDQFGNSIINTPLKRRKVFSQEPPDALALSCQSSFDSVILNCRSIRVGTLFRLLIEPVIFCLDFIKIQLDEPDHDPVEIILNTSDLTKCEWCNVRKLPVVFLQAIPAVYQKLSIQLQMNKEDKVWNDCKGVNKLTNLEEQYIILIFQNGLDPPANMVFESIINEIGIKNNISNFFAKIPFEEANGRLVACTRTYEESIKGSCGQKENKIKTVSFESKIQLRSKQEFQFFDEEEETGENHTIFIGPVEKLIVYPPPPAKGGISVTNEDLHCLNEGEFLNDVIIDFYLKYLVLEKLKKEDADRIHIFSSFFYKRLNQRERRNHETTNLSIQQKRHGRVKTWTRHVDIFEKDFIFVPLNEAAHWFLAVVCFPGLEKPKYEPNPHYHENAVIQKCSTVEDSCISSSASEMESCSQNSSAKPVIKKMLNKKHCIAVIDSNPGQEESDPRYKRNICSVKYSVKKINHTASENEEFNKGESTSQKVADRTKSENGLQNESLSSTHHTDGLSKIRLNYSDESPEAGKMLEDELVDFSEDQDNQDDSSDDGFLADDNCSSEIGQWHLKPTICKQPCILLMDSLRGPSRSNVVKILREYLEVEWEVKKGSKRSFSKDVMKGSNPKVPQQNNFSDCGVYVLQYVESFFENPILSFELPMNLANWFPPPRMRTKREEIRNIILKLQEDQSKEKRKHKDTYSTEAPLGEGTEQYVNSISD

[5] = target: T2, Sentrin-specific protease 6; experiment: SAR Analysis of small molecule inhibitors of Sentrin-specific protease 6 (SENP6) using a Luminescent assay. [Related pubchem assays (depositor defined):AID2582, AID2599]; format: functional
[6] = target: T3, Sentrin-specific protease 7 (Homo sapiens, UniProt Q9BQF6); format: functional;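 further: Luminescence-based dose-response confirmation of ultra-high-throughput screening hits, measuring inhibition of SENP7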
T3 sequence (Q9BQF6 whole entry): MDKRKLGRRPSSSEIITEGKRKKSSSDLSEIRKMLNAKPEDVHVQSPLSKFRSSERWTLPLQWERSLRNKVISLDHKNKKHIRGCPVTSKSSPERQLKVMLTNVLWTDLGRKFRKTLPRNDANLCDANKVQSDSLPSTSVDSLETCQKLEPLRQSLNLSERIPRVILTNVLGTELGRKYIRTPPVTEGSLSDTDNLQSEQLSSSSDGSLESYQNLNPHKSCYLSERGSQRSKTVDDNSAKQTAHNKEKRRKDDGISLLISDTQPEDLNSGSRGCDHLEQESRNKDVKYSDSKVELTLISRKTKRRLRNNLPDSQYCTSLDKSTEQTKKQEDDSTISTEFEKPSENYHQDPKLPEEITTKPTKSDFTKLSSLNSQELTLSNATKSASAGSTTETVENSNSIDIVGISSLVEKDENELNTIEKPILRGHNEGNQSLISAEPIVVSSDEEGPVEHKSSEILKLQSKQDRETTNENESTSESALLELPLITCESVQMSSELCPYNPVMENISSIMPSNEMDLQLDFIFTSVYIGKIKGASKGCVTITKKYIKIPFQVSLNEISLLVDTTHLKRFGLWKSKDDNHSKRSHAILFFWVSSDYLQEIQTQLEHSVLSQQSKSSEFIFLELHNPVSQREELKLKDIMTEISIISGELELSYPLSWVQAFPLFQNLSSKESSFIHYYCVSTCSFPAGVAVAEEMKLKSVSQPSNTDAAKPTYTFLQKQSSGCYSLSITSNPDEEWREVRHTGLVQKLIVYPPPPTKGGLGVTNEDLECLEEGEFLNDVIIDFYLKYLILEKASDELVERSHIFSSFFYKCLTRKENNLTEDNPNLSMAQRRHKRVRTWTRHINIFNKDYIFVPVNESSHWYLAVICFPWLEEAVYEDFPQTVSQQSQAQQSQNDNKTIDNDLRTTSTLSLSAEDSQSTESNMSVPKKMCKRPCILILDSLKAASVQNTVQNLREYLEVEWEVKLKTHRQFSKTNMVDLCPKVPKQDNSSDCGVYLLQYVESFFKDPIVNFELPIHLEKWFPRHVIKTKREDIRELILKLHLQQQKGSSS

[7] = target: T4, Caspase-3 (Homo sapiens, UniProt P42574); experiment: SAR Analysis of small molecule inhibitors of Sentrin-specific proteases (SENPs) using a Caspase-3 Selectivity assay. [Related pubchem assays (depositor defined):AID2540, AID2599, AID434973, AID489001]; format: functional
T4 sequence (P42574 whole entry): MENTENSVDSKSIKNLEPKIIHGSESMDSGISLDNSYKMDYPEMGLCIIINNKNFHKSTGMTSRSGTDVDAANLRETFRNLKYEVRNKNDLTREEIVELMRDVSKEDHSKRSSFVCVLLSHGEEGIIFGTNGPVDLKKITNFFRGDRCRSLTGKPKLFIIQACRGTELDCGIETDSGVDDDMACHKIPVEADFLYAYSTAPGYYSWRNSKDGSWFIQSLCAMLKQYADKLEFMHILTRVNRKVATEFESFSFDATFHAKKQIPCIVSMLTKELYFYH

[8] = target: T3, Sentrin-specific protease 7; experiment: SENP7 protease inhibitors, SAR follow-up, biochemical, luminescence (AID 504497); format: functional
[9] = target: T5, Sentrin-specific protease 8 (Homo sapiens, UniProt Q96LD8); experiment: SENP8 protease inhibitors, SAR follow-up, biochemical, luminescence (AID 504501); format: functional
T5 sequence (Q96LD8 whole entry): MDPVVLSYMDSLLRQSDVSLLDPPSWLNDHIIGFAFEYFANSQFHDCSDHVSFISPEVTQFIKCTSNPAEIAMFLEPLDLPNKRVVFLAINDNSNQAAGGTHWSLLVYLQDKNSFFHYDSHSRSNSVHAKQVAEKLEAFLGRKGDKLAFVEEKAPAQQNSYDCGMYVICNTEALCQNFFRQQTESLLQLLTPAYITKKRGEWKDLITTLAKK

[10] = target: T4, Caspase-3; format: functional
[11] = target: T5, Sentrin-specific protease 8; format: functional
[12] = tested on: HeLa; experiment: HeLa cell cytotoxicity, dose response, cytotoxicity control for MITF activator project, CellTiter-Glo luminescence, cherry-pick samples (AID 540259); format: functional, cell-based; details: Homo sapiens
[13] = target: Phospholipase A2 (Homo sapiens, UniProt P04054); format: functional;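 further: confirmatory dose-response counterscreen on phospholipase A2, testing hits that came from an ultra-high-throughput screen for ATG4B inhibitors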
Phospholipase A2, sequence (P04054 whole entry): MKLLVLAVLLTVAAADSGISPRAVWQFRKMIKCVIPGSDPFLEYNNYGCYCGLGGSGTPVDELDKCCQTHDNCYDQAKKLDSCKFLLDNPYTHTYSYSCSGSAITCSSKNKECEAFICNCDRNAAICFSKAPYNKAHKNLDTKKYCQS

[14] = target: T6, Cysteine protease ATG4B (Homo sapiens, UniProt Q9Y4P1); format: functional;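 further: Fluorescence-based dose-response confirmation assay measuring inhibition of ATG4B activity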
T6 sequence (Q9Y4P1 whole entry): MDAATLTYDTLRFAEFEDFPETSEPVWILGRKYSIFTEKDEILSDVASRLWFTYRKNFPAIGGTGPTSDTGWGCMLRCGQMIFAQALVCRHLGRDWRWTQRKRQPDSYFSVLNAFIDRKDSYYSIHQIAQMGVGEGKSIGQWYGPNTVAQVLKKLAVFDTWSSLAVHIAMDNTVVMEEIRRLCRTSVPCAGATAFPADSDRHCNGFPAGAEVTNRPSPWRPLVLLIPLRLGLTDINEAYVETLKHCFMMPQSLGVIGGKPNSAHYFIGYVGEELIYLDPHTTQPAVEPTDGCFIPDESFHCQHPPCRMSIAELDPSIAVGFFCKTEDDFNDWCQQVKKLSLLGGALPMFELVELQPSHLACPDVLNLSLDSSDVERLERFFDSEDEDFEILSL

[15] = target: T4, Caspase-3; experiment: caspase-3 inhibitors as off-family protease, SAR follow-up, selectivity assay for SENP protease inhibitor project, biochemical, luminescence, set 2 (AID 588599); format: functional
[16] = target: T5, Sentrin-specific protease 8; experiment: SENP8 protease inhibitors, SAR follow-up, biochemical, luminescence, set 2 (AID 588601); format: functional
[17] = tested on: CHO; experiment: cytotoxicity in TLR9-MyD88 CHO cells, dose response, cytotoxicity control for TLR9-MyD88 binding inhibitor project, cell-based, luminescence (AID 588339); format: functional, hamster; details: Cricetulus griseus;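 further: CHO cells stably coexpressing TLR9 and MyD88 fusions from primary screen; compound exposure lasted 48 hours before viability readout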
[18] = target: Beta Lactamase (Pseudomonas aeruginosa, UniProt Q932Y6); experiment: beta-lactamase reporter inhibitor potency, dose response, artefact control for TLR9-MyD88 binding inhibitor project, BLA reporter cells, FRET fluorescence (AID 588341); format: cell-based;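 further: cell based assay in CHO-K1 cells stably expressing beta-lactamase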
Beta Lactamase, sequence (Q932Y6 whole entry): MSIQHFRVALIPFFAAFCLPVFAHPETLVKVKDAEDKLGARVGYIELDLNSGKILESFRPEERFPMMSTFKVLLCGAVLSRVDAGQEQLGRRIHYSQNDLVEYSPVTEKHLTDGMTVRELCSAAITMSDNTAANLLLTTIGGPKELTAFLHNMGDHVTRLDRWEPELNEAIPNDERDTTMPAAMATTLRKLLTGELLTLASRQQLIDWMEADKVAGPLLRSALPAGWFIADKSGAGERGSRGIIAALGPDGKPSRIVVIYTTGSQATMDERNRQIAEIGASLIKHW

Voltage-gated inwardly rectifying potassium channel KCNH2, sequence (Q12809 whole entry): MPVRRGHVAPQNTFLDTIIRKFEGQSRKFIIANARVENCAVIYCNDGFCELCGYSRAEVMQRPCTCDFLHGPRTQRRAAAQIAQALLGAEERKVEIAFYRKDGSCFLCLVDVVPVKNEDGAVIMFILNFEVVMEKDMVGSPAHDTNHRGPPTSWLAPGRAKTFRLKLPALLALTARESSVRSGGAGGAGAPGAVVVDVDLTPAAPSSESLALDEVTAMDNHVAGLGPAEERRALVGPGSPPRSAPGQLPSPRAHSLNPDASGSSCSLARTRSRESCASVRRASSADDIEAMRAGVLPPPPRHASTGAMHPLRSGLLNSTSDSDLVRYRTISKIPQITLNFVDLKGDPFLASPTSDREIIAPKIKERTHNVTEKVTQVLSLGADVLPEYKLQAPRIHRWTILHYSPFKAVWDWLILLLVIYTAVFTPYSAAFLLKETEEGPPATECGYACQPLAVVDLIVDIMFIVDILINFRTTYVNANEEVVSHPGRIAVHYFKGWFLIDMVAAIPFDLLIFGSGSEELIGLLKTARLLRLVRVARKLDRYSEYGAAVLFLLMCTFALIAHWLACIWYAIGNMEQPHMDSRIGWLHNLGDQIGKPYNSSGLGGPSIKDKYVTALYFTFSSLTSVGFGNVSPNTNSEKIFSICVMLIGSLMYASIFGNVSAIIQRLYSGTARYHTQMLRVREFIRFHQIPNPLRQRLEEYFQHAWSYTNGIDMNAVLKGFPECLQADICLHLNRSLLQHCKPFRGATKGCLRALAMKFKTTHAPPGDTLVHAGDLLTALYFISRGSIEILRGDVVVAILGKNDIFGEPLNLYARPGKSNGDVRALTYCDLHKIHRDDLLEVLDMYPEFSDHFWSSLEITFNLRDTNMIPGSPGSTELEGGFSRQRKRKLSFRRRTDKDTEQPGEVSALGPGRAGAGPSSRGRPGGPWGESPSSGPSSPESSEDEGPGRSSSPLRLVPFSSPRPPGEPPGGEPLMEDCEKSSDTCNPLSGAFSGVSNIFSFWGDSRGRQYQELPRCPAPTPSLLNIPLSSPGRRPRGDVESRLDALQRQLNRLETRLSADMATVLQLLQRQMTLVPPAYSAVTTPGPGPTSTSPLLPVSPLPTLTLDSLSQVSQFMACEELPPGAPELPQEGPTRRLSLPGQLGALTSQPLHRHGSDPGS

Structure (SMILES): COc1cc(CC(C)N)c(OC)cc1I (centres undefined)
- AC50 [1]: 15.8 µM (inconclusive)

Structure (SMILES): CCCCn1c(=N)n(CCOc2ccc(C)cc2)c2ccccc21
- AC50 [2]: 11.3 µM (active)
- AC50 [3]: 18.3 µM (active)

Structure (SMILES): Cc1ccccc1NC(=O)Cc1nc(COC(=O)c2ccc(S(C)(=O)=O)c([N+](=O)[O-])c2)cs1
- AC50 [2]: 12.8 µM (active)
- AC50 [3]: 28.2 µM (active)

Structure (SMILES): O=C(Nc1ccc(Br)cc1)c1ccc2c(c1)OCO2
- IC50 [4]: > 100 µM (inactive)
- IC50 [5]: > 99 µM (inactive)
- IC50 [6]: 3.75 µM (active)
- IC50 [7]: 8.29 µM (active)
- IC50 [8]: 4.45 µM (active)
- IC50 [9]: > 99 µM (inactive)
- IC50 [10]: 22.1 µM (active)
- IC50 [11]: > 100 µM (inactive)

Structure (SMILES): COc1cccc(NC(=O)Nc2ccc3c(c2)nnn3C)c1
- AC50 [12]: > 350 µM (inactive)

Structure (SMILES): CC(C)c1ccc(NC2CCCN(C(=O)c3[nH]nc4c3CCC4)C2)cc1 (centres undefined)
- IC50 [13]: 5.99 µM (active)
- IC50 [14]: 11.8 µM (active)

Structure (SMILES): N=C(N)SCCc1cccc(CCSC(=N)N)c1
- AC50 [1]: 20 µM (inconclusive)

Structure (SMILES): CC(c1ccccc1)c1nnc(NC(=O)Nc2ccccc2F)s1 (centres undefined)
- AC50 [12]: 52.5 µM (active)

Structure (SMILES): Cc1ccc(C(=O)Nc2nc3ccc(Cl)cc3s2)o1
- IC50 [5]: 25 µM (active)
- IC50 [15]: 2.53 µM (active)
- IC50 [7]: 11 µM (active)
- IC50 [16]: 1.65 µM (active)
- IC50 [9]: 3 µM (active)

Structure (SMILES): Nc1ccccc1-c1noc(/C=C/c2ccccc2Cl)n1
- IC50 [5]: > 99 µM (inactive)
- IC50 [7]: > 99 µM (inactive)
- IC50 [8]: 71.3 µM (active)
- IC50 [9]: > 99 µM (inactive)

Structure (SMILES): COc1ccc(/C=N/Nc2ccc([N+](=O)[O-])cc2)cc1O
- IC50 [17]: 45.1 µM (inactive)
- IC50 [18]: 10.7 µM (inactive)
